# Experimental data taken from US20240209028A1, “CNP COMPOUNDS” (priority 2022, published 2024).
# Like-named read-outs stand apart in the source and are kept apart here. Starred links: 1 amine or outer side, 2 acyl side, 3 side chain; linkers in the order of their positions; H or OH if unused. Positions of bridges follow the written chain, without caps; N, C: chain ends. Residues, ends and D or L forms follow the SMILES beside them. *: point of attachment. C18 diacid = O=C(O)CCCCCCCCCCCCCCCCC(=O)*; γGlu = O=C(O)[C@H](CCC(=O)[*:2])N[*:1]; X1 = O=C(CCCCCCCCCCCCCCCCc1nnn[nH]1)*; AEEA = NCCOCCOCC(=O)O
# Experiment: PK of CNP compounds after i.v. and s.c. administration to rats
# Settings: male, Sprague Dawley, in vivo, rat; for clearance: read-out: Cl (L/hr/kg), i.v. administration (converted); for bioavailability: s.c. bioavailability, read-out: F (%), s.c. administration
# Outline: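 Male Sprague Dawley rats (n=4-6) were dosed at 300 nmol/kg s.c. or 100 nmol/kg i.v., formulated at pH 7.4 or 4.0, and sampled up to 72 h. Plasma levels were measured by TF-LC-MS against calibrators from 0.5 to 2000 nM. Non-compartmental PK used dose-normalized AUC for bioavailability, with values given as means.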
# [1] = iv, i.v., about 100 nmol/kg, read-out: T½ (hr), i.v. administration (converted)
# [2] = sc, s.c., about 300 nmol/kg, read-out: T½ (hr), s.c. administration (converted)
SMILES,"clearance (iv, i.v., about 100 nmol/kg) [L/h/kg]",half-life [1] [h],"bioavailability (sc, about 300 nmol/kg) [%]",half-life [2] [h]
CC[C@H](C)[C@@H]1NC(=O)[C@H](CCCNC(=N)N)NC(=O)[C@H](CC(=O)O)NC(=O)[C@H](CC(C)C)NC(=O)[C@@H]2CCCN2C(=O)[C@H](CC(C)C)NC(=O)CNC(=O)[C@H](Cc2ccccc2)NC(=O)[C@@H](NC(=O)CNC(=O)[C@H](CCCCN)NC(=O)[C@H](CO)NC(=O)[C@@H](NC(=O)CNC(=O)[C@@H](NC(=O)[C@H](Cc2c[nH]cn2)NC(=O)[C@H](CCC(N)=O)NC(=O)[C@H](C)NC(=O)CNC(=O)[C@H](Cc2c[nH]cn2)NC(=O)[C@H](Cc2ccc(O)cc2)NC(=O)[C@H](CCCCN)NC(=O)[C@H](CCCNC(=N)N)NC(=O)[C@H](C)NC(=O)COCCOCCNC(=O)COCCOCCNC(=O)CC[C@H](NC(=O)CC[C@H](NC(=O)CC[C@H](NC(=O)CCCCCCCCCCCCCCCCC(=O)O)C(=O)O)C(=O)O)C(=O)O)[C@@H](C)O)C(C)C)CSSC[C@@H](C(=O)O)NC(=O)CNC(=O)[C@H](CC(C)C)NC(=O)CNC(=O)[C@H](CO)NC(=O)[C@H](CC(C)C)NC(=O)[C@H](CO)NC(=O)CNC1=O [compound 1420] ({C18 diacid-γGlu-γGlu-γGlu-AEEA-AEEA}-ARKYHGAQHTGVSKGCFGLPLDRIGSLSGLGC-OH; disulfide 16-32),0.00764,8.34,49.7,9.47
CC[C@H](C)[C@@H]1NC(=O)[C@H](CCCNC(=N)N)NC(=O)[C@H](CC(=O)O)NC(=O)[C@H](CC(C)C)NC(=O)[C@@H]2CCCN2C(=O)[C@H](CC(C)C)NC(=O)CNC(=O)[C@H](Cc2ccccc2)NC(=O)[C@@H](NC(=O)CNC(=O)[C@H](CCC(N)=O)NC(=O)[C@H](CO)NC(=O)[C@H](CC(C)C)NC(=O)CNC(=O)[C@H](CO)NC(=O)[C@H](CCCCN)NC(=O)[C@H](CCC(N)=O)NC(=O)[C@H](C)NC(=O)CNC(=O)[C@H](Cc2c[nH]cn2)NC(=O)[C@H](Cc2ccc(O)cc2)NC(=O)[C@H](CCCCN)NC(=O)[C@H](CCCNC(=N)N)NC(=O)[C@H](C)NC(=O)COCCOCCNC(=O)COCCOCCNC(=O)CC[C@H](NC(=O)CC[C@H](NC(=O)CCCCCCCCCCCCCCCCc2nnn[nH]2)C(=O)O)C(=O)O)CSSC[C@@H](C(=O)O)NC(=O)CNC(=O)[C@H](CC(C)C)NC(=O)CNC(=O)[C@H](CO)NC(=O)[C@H](CC(C)C)NC(=O)[C@H](CO)NC(=O)CNC1=O [compound 1426] ({X1-γGlu-γGlu-AEEA-AEEA}-ARKYHGAQKSGLSQGCFGLPLDRIGSLSGLGC-OH; disulfide 16-32),0.00348,9.96,,
CC[C@H](C)[C@@H]1NC(=O)[C@H](CCCNC(=N)N)NC(=O)[C@H](CC(=O)O)NC(=O)[C@H](CC(C)C)NC(=O)[C@@H]2CCCN2C(=O)[C@H](CC(C)C)NC(=O)CNC(=O)[C@H](Cc2ccccc2)NC(=O)[C@@H](NC(=O)CNC(=O)[C@H](CCC(N)=O)NC(=O)[C@H](CO)NC(=O)CNC(=O)CNC(=O)[C@H](CCCCN)NC(=O)[C@H](CCCCN)NC(=O)[C@H](CCC(N)=O)NC(=O)[C@H](C)NC(=O)CNC(=O)[C@H](Cc2c[nH]cn2)NC(=O)[C@H](Cc2ccc(O)cc2)NC(=O)COCCOCCNC(=O)COCCOCCNC(=O)COCCOCCNC(=O)COCCOCCNC(=O)CC[C@H](NC(=O)CC[C@H](NC(=O)CCCCCCCCCCCCCCCCC(=O)O)C(=O)O)C(=O)O)CSSC[C@@H](C(=O)O)NC(=O)CNC(=O)[C@H](CC(C)C)NC(=O)CNC(=O)[C@H](CO)NC(=O)[C@H](CC(C)C)NC(=O)[C@H](CO)NC(=O)CNC1=O [compound 1434] ({C18 diacid-γGlu-γGlu-AEEA-AEEA-AEEA-AEEA}-YHGAQKKGGSQGCFGLPLDRIGSLSGLGC-OH; disulfide 13-29),0.00764,8.34,,
CC[C@H](C)[C@@H]1NC(=O)[C@H](CCCNC(=N)N)NC(=O)[C@H](CC(=O)O)NC(=O)[C@H](CC(C)C)NC(=O)[C@@H]2CCCN2C(=O)[C@H](CC(C)C)NC(=O)CNC(=O)[C@H](Cc2ccccc2)NC(=O)[C@@H](NC(=O)CNC(=O)[C@H](CCC(N)=O)NC(=O)[C@H](CO)NC(=O)[C@H](CO)NC(=O)CNC(=O)[C@H](CCCCN)NC(=O)[C@H](CCCCN)NC(=O)[C@H](CCC(N)=O)NC(=O)[C@H](C)NC(=O)CNC(=O)[C@@H]2CCCN2C(=O)[C@H](C)NC(=O)[C@H](CCC(N)=O)NC(=O)CNC(=O)COCCOCCNC(=O)COCCOCCNC(=O)CC[C@H](NC(=O)CCCCCCCCCCCCCCCCC(=O)O)C(=O)O)CSSC[C@@H](C(=O)O)NC(=O)CNC(=O)[C@H](CC(C)C)NC(=O)CNC(=O)[C@H](CO)NC(=O)[C@H](CC(C)C)NC(=O)[C@H](CO)NC(=O)CNC1=O [compound 9384] ({C18 diacid-γGlu-AEEA-AEEA}-GQAPGAQKKGSSQGCFGLPLDRIGSLSGLGC-OH; disulfide 15-31; C-terminus assumed),0.00493,9.15,49.7,9.47
CC[C@H](C)[C@@H]1NC(=O)[C@H](CCCNC(=N)N)NC(=O)[C@H](CC(=O)O)NC(=O)[C@H](CC(C)C)NC(=O)[C@@H]2CCCN2C(=O)[C@H](CC(C)C)NC(=O)CNC(=O)[C@H](Cc2ccccc2)NC(=O)[C@@H](NC(=O)CNC(=O)[C@H](CCC(N)=O)NC(=O)[C@H](CO)NC(=O)[C@H](CC(C)C)NC(=O)CNC(=O)[C@H](CCCCN)NC(=O)[C@H](CCCCN)NC(=O)[C@H](CCC(N)=O)NC(=O)[C@H](C)NC(=O)CNC(=O)[C@H](CCCCN)NC(=O)[C@H](Cc2ccc(O)cc2)NC(=O)[C@H](CCCCN)NC(=O)[C@H](CCCNC(=N)N)NC(=O)[C@H](C)NC(=O)COCCOCCNC(=O)COCCOCCNC(=O)COCCOCCNC(=O)COCCOCCNC(=O)CC[C@H](NC(=O)CC[C@H](NC(=O)CC[C@H](NC(=O)CC[C@H](NC(=O)CC[C@H](NC(=O)CCCCCCCCCCCCCCCCC(=O)O)C(=O)O)C(=O)O)C(=O)O)C(=O)O)C(=O)O)CSSC[C@@H](C(=O)O)NC(=O)CNC(=O)[C@H](CC(C)C)NC(=O)CNC(=O)[C@H](CO)NC(=O)[C@H](CC(C)C)NC(=O)[C@H](CO)NC(=O)CNC1=O [compound 9407] ({C18 diacid-γGlu-γGlu-γGlu-γGlu-γGlu-AEEA-AEEA-AEEA-AEEA}-ARKYKGAQKKGLSQGCFGLPLDRIGSLSGLGC-OH; disulfide 16-32),0.00515,15.2,37.2,14.9
CC[C@H](C)[C@@H]1NC(=O)[C@H](CCCNC(=N)N)NC(=O)[C@H](CC(=O)O)NC(=O)[C@H](CC(C)C)NC(=O)[C@@H]2CCCN2C(=O)[C@H](CC(C)C)NC(=O)CNC(=O)[C@H](Cc2ccccc2)NC(=O)[C@@H](NC(=O)CNC(=O)[C@H](CCC(N)=O)NC(=O)[C@H](CO)NC(=O)CNC(=O)CNC(=O)[C@H](CCCCN)NC(=O)[C@H](CCCCN)NC(=O)[C@H](CCC(N)=O)NC(=O)[C@H](C)NC(=O)CNC(=O)[C@H](CCCCN)NC(=O)[C@H](Cc2ccc(O)cc2)NC(=O)COCCOCCNC(=O)COCCOCCNC(=O)COCCOCCNC(=O)COCCOCCNC(=O)CC[C@H](NC(=O)CC[C@H](NC(=O)CCCCCCCCCCCCCCCCC(=O)O)C(=O)O)C(=O)O)CSSC[C@@H](C(=O)O)NC(=O)CNC(=O)[C@H](CC(C)C)NC(=O)CNC(=O)[C@H](CO)NC(=O)[C@H](CC(C)C)NC(=O)[C@H](CO)NC(=O)CNC1=O [compound 9435] ({C18 diacid-γGlu-γGlu-AEEA-AEEA-AEEA-AEEA}-YKGAQKKGGSQGCFGLPLDRIGSLSGLGC-OH; disulfide 13-29; C-terminus assumed),0.00458,10.4,,
CC[C@H](C)[C@@H]1NC(=O)[C@H](CCCNC(=N)N)NC(=O)[C@H](CC(=O)O)NC(=O)[C@H](CC(C)C)NC(=O)[C@@H]2CCCN2C(=O)[C@H](CC(C)C)NC(=O)CNC(=O)[C@H](Cc2ccccc2)NC(=O)[C@@H](NC(=O)CNC(=O)[C@H](CO)NC(=O)[C@H](CO)NC(=O)[C@H](CC(C)C)NC(=O)CNC(=O)[C@H](CCCCN)NC(=O)[C@H](CCCCN)NC(=O)[C@H](CCC(N)=O)NC(=O)[C@H](C)NC(=O)CNC(=O)[C@H](CCCCN)NC(=O)[C@H](Cc2ccc(O)cc2)NC(=O)[C@H](CCCCN)NC(=O)[C@H](CCCNC(=N)N)NC(=O)[C@H](C)NC(=O)[C@H](CCC(N)=O)NC(=O)[C@@H]2CCCN2C(=O)[C@H](Cc2c[nH]cn2)NC(=O)[C@H](CCC(=O)O)NC(=O)[C@H](CCC(N)=O)NC(=O)CC[C@H](NC(=O)CC[C@H](NC(=O)CC[C@H](NC(=O)CC[C@H](NC(=O)CC[C@H](NC(=O)CCCCCCCCCCCCCCCCC(=O)O)C(=O)O)C(=O)O)C(=O)O)C(=O)O)C(=O)O)CSSC[C@@H](C(=O)O)NC(=O)CNC(=O)[C@H](CC(C)C)NC(=O)CNC(=O)[C@H](CO)NC(=O)[C@H](CC(C)C)NC(=O)[C@H](CO)NC(=O)CNC1=O [compound 9482] ({C18 diacid-γGlu-γGlu-γGlu-γGlu-γGlu}-QEHPQARKYKGAQKKGLSSGCFGLPLDRIGSLSGLGC-OH; disulfide 21-37),0.00549,14.5,71.5,18.6
